The values that follow come from patent US8367658B2, “Pyrazin-2-yl-pyridin-2-yl-amine and pyrazin-2-yl-pyrimidin-4-yl-amine compounds and their use” (Cancer Research Technology Limited, priority 2007, dated 2013).

Structures are written as SMILES. Where “and” joins values, the source holds several entries; their conditions need not be identical. Equal values may be shown once. A value given as a limit tells only on which side of the number the result lay.

In this test the target is T1, CHK1 (Homo sapiens, UniProt O14757).
T1 sequence (O14757 1-476): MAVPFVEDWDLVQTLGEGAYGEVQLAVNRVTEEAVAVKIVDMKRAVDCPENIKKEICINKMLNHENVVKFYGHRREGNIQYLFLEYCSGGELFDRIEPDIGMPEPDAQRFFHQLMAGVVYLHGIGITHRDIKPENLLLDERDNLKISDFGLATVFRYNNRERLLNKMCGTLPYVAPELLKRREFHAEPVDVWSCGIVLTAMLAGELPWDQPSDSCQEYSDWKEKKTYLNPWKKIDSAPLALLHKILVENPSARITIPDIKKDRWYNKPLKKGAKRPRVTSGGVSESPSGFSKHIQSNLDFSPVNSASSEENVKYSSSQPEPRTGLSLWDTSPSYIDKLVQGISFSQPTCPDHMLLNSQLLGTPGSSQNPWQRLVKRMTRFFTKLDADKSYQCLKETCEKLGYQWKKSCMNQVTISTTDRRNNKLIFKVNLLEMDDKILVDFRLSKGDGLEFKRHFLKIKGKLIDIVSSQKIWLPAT
The test is described as follows: CHK1 kinase function inhibition assay (DELFIA, phosphorylation of a CDC25C peptide). It counts as biochemical. The note with it: CHK1 1 nM, ATP 30 μM, 30 minutes at room temperature. Here is the method: Measurement of Inhibition of CHK1 Kinase Function
CHK1 kinase function was measured in a DELFIA® assay in order to monitor phosphorylation of a CDC25C peptide using a specific phospho antibody.
The reaction mixture was incubated for 30 minutes at room temperature and then stopped by the addition of buffer (125 μL) containing 40 mM EDTA, 0.05% Tween 20, 0.1% BSA in TBS (10× concentrate, Sigma). An aliquot (100 μL) of the stopped reaction mixture was transferred to a black neutravidin-coated plate (Perbio) and incubated for 1 hour on a shaker (Titertek, Flow Laboratories) at room temperature. […] The plates were washed a further four times with wash buffer before the addition of enhancement solution (100 μL/well, PerkinElmer Life Sciences).

Consider `N#Cc1cnc(Nc2cc(NCC3CCCNC3)c(N3CCC(O)C3)cn2)cn1` (stereo in doubt) [Compound Y-061, 5-(5-(3-Hydroxypyrrolidin-1-yl)-4-((R)-piperidin-3-ylmethylamino)pyridin-2-ylamino) pyrazine-2-carbonitrile], for which the IC50 (as a rule, the concentration needed to halve the response being measured) is no more than 0.1 µM.

`COC(=O)c1cnc(Nc2cnc(C#N)cn2)cc1N[C@H]1CC2CC[C@H](C1)N2C(=O)OC(C)(C)C` (stereo in doubt) [Compound Y-074, (1R,5R)-tert-Butyl 3-(2-(5-cyanopyrazin-2-ylamino)-5-(methoxycarbonyl)pyridin-4-ylamino)-8-azabicyclo[3.2.1]octane-8-carboxylate] displayed an IC50 of 1 to 10 µM.

`N#Cc1cnc(Nc2cc(NCC3CCNCC3)c(N)cn2)cn1` [Compound Y-001, 5-(5-Amino-4-(piperidin-4-ylmethylamino)pyridin-2-ylamino)pyrazine-2-carbonitrile]: the IC50 is ≤ 1 µM and 0.1 to 1 µM.

Regarding `N#Cc1cnc(Nc2cc(NCCN)c(N)cn2)cn1` [Compound Y-003, 5-(5-Amino-4-(2-aminoethylamino)pyridin-2-ylamino)pyrazine-2-carbonitrile], the IC50 was ≤ 1 µM and 0.66 µM and 0.1 to 1 µM.

The molecule `CN(C)CCNc1cc(Nc2cnc(C#N)cn2)ncc1N` [Compound Y-004, 5-(5-Amino-4-(2-(dimethylamino)ethylamino)pyridin-2-ylamino)pyrazine-2-carbonitrile] returned an IC50 of 1 to 10 µM.

`N#Cc1cnc(Nc2cc(NC3CCNCC3)c(N)cn2)cn1` [Compound Y-005, 5-(5-Amino-4-(piperidin-4-ylamino)pyridin-2-ylamino)pyrazine-2-carbonitrile]: the IC50 was ≤ 1 µM and 0.1 to 1 µM.

As for `CN1C2CCC1CC(Nc1cc(Nc3cnc(C#N)cn3)ncc1N)C2` (centres unmarked) [Compound Y-006, 5-(5-Amino-4-(8-methyl-8-aza-bicyclo[3.2.1]octan-3-ylamino)-pyridin-2-ylamino)pyrazine-2-carbonitrile], the IC50 was 1 to 10 µM.

Regarding `CN1CCC(Nc2cc(Nc3cnc(C#N)cn3)ncc2N)CC1` [Compound Y-007, 5-(5-Amino-4-(1-methylpiperidin-4-ylamino)pyridin-2-ylamino)pyrazine-2-carbonitrile], the IC50 was no more than 0.1 µM.

In the case of `N#Cc1cnc(Nc2cc(N[C@@H]3CCCNC3)c(N)cn2)cn1` [Compound Y-008, (R)-5-(5-Amino-4-(piperidin-3-ylamino)pyridin-2-ylamino)pyrazine-2-carbonitrile], the IC50 is ≤ 1 µM and 0.1 to 1 µM.

For the molecule `N#Cc1cnc(Nc2cc(N[C@H]3CCCNC3)c(N)cn2)cn1` [Compound Y-009, (S)-5-(5-Amino-4-(piperidin-3-ylamino)pyridin-2-ylamino)pyrazine-2-carbonitrile], the IC50 fell in the range of 1 to 10 µM.

For the molecule `CN(C)CC(=O)Nc1cnc(Nc2cnc(C#N)cn2)cc1NCC1CCNCC1` [Compound Y-010, N-(6-(5-Cyanopyrazin-2-ylamino)-4-(piperidin-4-ylmethylamino)pyridin-3-yl)-2-(dimethylamino)acetamide], the IC50 is ≤ 1 µM and 0.1 to 1 µM.

Molecule `N#Cc1cnc(Nc2cc(NCC3CCNCC3)c(NC(=O)CCN3CCCCC3)cn2)cn1` [Compound Y-011, N-(6-(5-Cyanopyrazin-2-ylamino)-4-(piperidin-4-ylmethylamino)pyridin-3-yl)-3-(piperidin-1-yl)propanamide] showed an IC50 of 1 to 10 µM.

In the case of `COc1ccc(CCC(=O)Nc2cnc(Nc3cnc(C#N)cn3)cc2NCC2CCNCC2)cc1` [Compound Y-012, N-(6-(5-Cyanopyrazin-2-ylamino)-4-(piperidin-4-ylmethylamino)pyridin-3-yl)-3-(4-methoxyphenyl)propanamide], the IC50 is 1 to 10 µM.

Turning to `COc1ccc(CC(=O)Nc2cnc(Nc3cnc(C#N)cn3)cc2NCC2CCNCC2)cc1` [Compound Y-013, N-(6-(5-Cyanopyrazin-2-ylamino)-4-(piperidin-4-ylmethylamino)pyridin-3-yl)-2-(4-methoxyphenyl)acetamide], the IC50 is 1 to 10 µM.

In the case of `CN(C)CC(=O)Nc1cnc(Nc2cnc(C#N)cn2)cc1NC1CC2CCC(C1)N2C` (centres unmarked) [Compound Y-015, N-(6-(5-Cyanopyrazin-2-ylamino)-4-(8-methyl-8-aza-bicyclo[3.2.1]octan-3-ylamino)pyridin-3-yl)-2-(dimethylamino)acetamide], the IC50 fell in the range of 1 to 10 µM.

Take `CN(C)CC(=O)Nc1cnc(Nc2cnc(C#N)cn2)cc1NC1CCNCC1` [Compound Y-016, N-(6-(5-Cyanopyrazin-2-ylamino)-4-(piperidin-4-ylamino)pyridin-3-yl)-2-(dimethylamino)acetamide]: the IC50 was ≤ 1 µM and 0.1 to 1 µM.

Molecule `COC(=O)c1cnc(Nc2cnc(C#N)cn2)cc1N(C)CC1CCNCC1` [Compound Y-021, Methyl 6-(5-cyanopyrazin-2-ylamino)-4-(methyl(piperidin-4-ylmethyl)amino)nicotinate] yielded an IC50 of no more than 0.1 µM.

`COC(=O)c1cnc(Nc2cnc(C#N)cn2)cc1NC(C)C1CCNCC1` (centres unmarked) [Compound Y-022, Methyl 6-(5-cyanopyrazin-2-ylamino)-4-(1-(piperidin-4-yl)ethylamino)nicotinate] gave an IC50 of no more than 0.1 µM.

For the molecule `COC(=O)c1cnc(Nc2cnc(C#N)cn2)cc1NC1CC(C)(C)N(C)C(C)(C)C1` [Compound Y-024, Methyl 6-(5-cyanopyrazin-2-ylamino)-4-(1,2,2,6,6-pentamethylpiperidin-4-ylamino)nicotinate], the IC50 is ≤ 1 µM and 0.1 to 1 µM.

For `COC(=O)c1cnc(Nc2cnc(C#N)cn2)cc1NCC1(C)CCNCC1` [Compound Y-026, Methyl 6-(5-cyanopyrazin-2-ylamino)-4-((4-methylpiperidin-4-yl)methylamino)nicotinate], the half-maximal inhibitory concentration (IC50) was no more than 0.1 µM.

As to `COC(=O)c1cnc(Nc2cnc(C#N)cn2)cc1N[C@H]1CCN[C@H](C(=O)Nc2ccccc2)C1` [Compound Y-028, Methyl 6-(5-cyanopyrazin-2-ylamino)-4-((2S,4S)-2-(phenylcarbamoyl)piperidin-4-ylamino)nicotinate], the IC50 is ≤ 1 µM and 0.1 to 1 µM.

For the molecule `COC(=O)c1cnc(Nc2cnc(C#N)cn2)cc1NC1C[C@H]2CC[C@@H](C1)N2Cc1ccccc1` (stereo partly drawn) [Compound Y-029, Methyl 4-((1R,3s,5S)-8-benzyl-8-azabicyclo[3.2.1]octan-3-ylamino)-6-(5-cyanopyrazin-2-ylamino)nicotinate], the IC50 is no more than 0.1 µM.

In turn, `COC(=O)c1cnc(Nc2cnc(C#N)cn2)cc1N[C@H]1C[C@H]2CC[C@@H](C1)N2Cc1ccccc1` [Compound Y-030, Methyl 4-((1R,3r,5S)-8-benzyl-8-azabicyclo[3.2.1]octan-3-ylamino)-6-(5-cyanopyrazin-2-ylamino)nicotinate] registered an IC50 of 1 to 10 µM.

In the case of `COC(=O)c1cnc(Nc2cnc(C#N)cn2)cc1NCC1(C)COC1` [Compound Y-031, Methyl 6-(5-cyanopyrazin-2-ylamino)-4-((3-methyloxetan-3-yl)methylamino)nicotinate], the IC50 is ≤ 1 µM and 0.1 to 1 µM.

In the case of `CCNC(=O)c1cnc(Nc2cnc(C#N)cn2)cc1NC1CC2CCC(C1)N2C` (centres unmarked) [Compound Y-034, 6-(5-Cyanopyrazin-2-ylamino)-N-ethyl-4-(8-methyl-8-azabicyclo[3.2.1]octan-3-ylamino)nicotinamide], the IC50 is ≤ 1 µM and 0.1 to 1 µM.

As to `COC(=O)c1cnc(Nc2cnc(C)cn2)cc1NCC1CCNCC1` [Compound Y-036, Methyl 6-(5-methylpyrazin-2-ylamino)-4-(piperidin-4-ylmethylamino)nicotinate], the IC50 is ≤ 1 µM and 0.1 to 1 µM.

In turn, `COC(=O)c1cnc(Nc2cnc(OC)cn2)cc1NC1CC2CCC(C1)N2C` (centres unmarked) [Compound Y-037, Methyl 6-(5-methoxypyrazin-2-ylamino)-4-(8-methyl-8-azabicyclo[3.2.1]octan-3-ylamino)nicotinate] showed an IC50 of no more than 0.1 µM.

The molecule `N#Cc1cnc(Nc2cc(OCC3CCNCC3)c(N)cn2)cn1` [Compound Y-038, 5-(5-Amino-4-(piperidin-4-ylmethoxy)pyridin-2-ylamino)pyrazine-2-carbonitrile] showed an IC50 of 1 to 10 µM.

`CN(C)CC(=O)Nc1cnc(Nc2cnc(C#N)cn2)cc1OCC1CCNCC1` [Compound Y-039, N-(6-(5-Cyanopyrazin-2-ylamino)-4-(piperidin-4-ylmethoxy)pyridin-3-yl)-2-(dimethylamino)acetamide] returned an IC50 of 1 to 10 µM.

With `CN1CCC(Nc2cc(Nc3cnc(C#N)cn3)ncc2[N+](=O)[O-])CC1` [Compound Y-040, 5-(4-(1-Methylpiperidin-4-ylamino)-5-nitropyridin-2-ylamino)pyrazine-2-carbonitrile], the IC50 is no more than 0.1 µM.

On to `N#Cc1cnc(Nc2cc(NCC3CCCNC3)c(N)cn2)cn1` (centres unmarked) [Compound Y-041, 5-(5-Amino-4-(piperidin-3-ylmethylamino)pyridin-2-ylamino)pyrazine-2-carbonitrile], for which the IC50 is no more than 0.1 µM.

The molecule `N#Cc1cnc(Nc2cc(NCCCN)c(N)cn2)cn1` [Compound Y-042, 5-(5-Amino-4-(3-aminopropylamino)pyridin-2-ylamino)pyrazine-2-carbonitrile] displayed an IC50 of no more than 0.1 µM.
